Data as given in PMC3509384 (Anesthesiology, 2012).
Where two headings read alike, the source gives them in different places.

Experiments:
[1] = system: rats; test: Loss of righting reflexes; format: in vivo, Sprague-Dawley rats; details: for Slope of Duration vs. Log Dose ± SD / ED50 ± SD for loss of righting reflexes (LORR) / R/S ED50 ratio: rats; for Slope of Duration vs. Log Dose ± SD: duration of LORR vs logarithm of dose; for Slope of Duration vs. Log Dose ± SD / ED50 ± SD for loss of righting reflexes (LORR) / death of rat after dosing: intravenous bolus; for ED50 ± SD for loss of righting reflexes (LORR): method of Waud; for R/S ED50 ratio: ED50 for LORR of (R)-form versus (S)-form of the diastereometric pair; for death of rat after dosing: one rat, 20 mg/kg dose
[2] = Octanol:water partition coefficient; format: physicochemical; details: water buffered with 10 mM Tris (pH 7.4)
[3] = In vitro metabolic half-life in pooled rat blood; format: in vitro ADME, Sprague-Dawley rats; details: for Blood Half-Life (95% CI): pooled rat blood, 37°C, 200 µM
[4] = ref Pejo et al.[8]; cited from earlier work

Compound	Slope of Duration vs. Log Dose ± SD [1]	ED50 ± SD for loss of righting reflexes (LORR) [1] [mg/kg]	Octanol/Water Partition Coefficient ± SD [2]	Blood Half-Life (95% CI) [3]	R/S ED50 ratio [1]	half-life at 200 µM ([3]; Sprague-Dawley, rat, pooled heparinised whole blood) [h]	death of rat after dosing [1]	Octanol/Water Partition Coefficient ± SD [4]
COC(=O)[C@H](C)COC(=O)c1cncn1[C@H](C)c1ccccc1 [α-(R)-methyl- methoxycarbonyl etomidate]	2.6 ± 0.3 min/(log mg/kg)	5.2 ± 0.5	670 ± 120	0.19 (0.17–0.22) min	–	–	–	–
COC(=O)CCOC(=O)c1cncn1[C@H](C)c1ccccc1 [Methoxycarbonyl etomidate]	1.0 ± 0.3 min/(log mg/kg)	5.3 ± 1.5	190 ± 25	0.41 (0.31–0.60) min	–	–	–	–
β-methyl-methoxycarbonyl etomidate	–	–	–	–	1.2	–	–	–
COC(=O)C[C@H](C)OC(=O)c1cncn1[C@H](C)c1ccccc1 [β-(S)-methyl- methoxycarbonyl etomidate]	2.0 ± 0.5 min/(log mg/kg)	2.9 ± 0.3	484 ± 12	0.72 (0.56–0.98) min	–	–	–	–
COC(=O)C(OC(=O)c1cncn1C(C)c1ccccc1)C(C)C (stereo not drawn) [isopropyl-methoxycarbonyl metomidate]	–	–	–	–	3.0	–	–	–
COC(=O)[C@@H](C)COC(=O)c1cncn1[C@H](C)c1ccccc1 [α-(S)-methyl- methoxycarbonyl etomidate]	2.4 ± 0.3 min/(log mg/kg)	3.1 ± 0.4	530 ± 170	0.76 (0.58–1.0) min	–	–	–	–
methyl-methoxycarbonyl metomidate	–	–	–	–	2.7	–	–	–
COC(=O)[C@@H](C)OC(=O)c1cncn1[C@H](C)c1ccccc1 [(R)-methyl- methoxycarbonyl metomidate]	4.6 ± 0.7 min/(log mg/kg)	9.6 ± 1.9	380 ± 15	<0.03 min	–	–	–	–
COC(=O)COC(=O)c1cncn1[C@H](C)c1ccccc1 [Methoxycarbonyl metomidate]	1.6 ± 0.4 min/(log mg/kg)	11.1 ± 0.8	159 ± 15	<0.03 min	–	–	–	–
COC(=O)c1cncn1C(C)c1ccccc1 (stereo not drawn) [Metomidate, reference compound]	33.0 ± 3.9 min/(log mg/kg)	–	–	–	–	2.38	–	–
α-methyl-methoxycarbonyl etomidate	–	–	–	–	1.7	–	–	–
COC(=O)C(C)(C)OC(=O)c1cncn1[C@H](C)c1ccccc1 [Dimethyl- methoxycarbonyl metomidate]	9.6 ± 0.8 min/(log mg/kg)	0.72 ± 0.16	660 ± 110	8.7 (7.4–10.7) min	–	–	died	–
COC(=O)CCOC(=O)c1cncn1[C@@H](c1ccccc1)C(C)C [(R)-isopropyl- methoxycarbonyl metomidate]	6.6 ± 1.3 min/(log mg/kg)	3.6 ± 0.8	3830 ± 310	0.15 (0.15–0.16) min	–	–	died	–
COC(=O)CC(C)(C)OC(=O)c1cncn1C(C)c1ccccc1 (stereo not drawn) [β-dimethyl- methoxycarbonyl etomidate]	11.9 ± 0.6 min/(log mg/kg)	1.9 ± 0.3	1580 ± 40	23.4 (19.6–28.9) min	–	–	–	–
COC(=O)C(C)(C)COC(=O)c1cncn1[C@H](C)c1ccccc1 [α-dimethyl- methoxycarbonyl etomidate]	9.8 ± 1.5 min/(log mg/kg)	2.4 ± 1	2240 ± 150	2.6 (1.9–4.2) min	–	–	–	–
CCOC(=O)c1cncn1[C@H](C)c1ccccc1 [Etomidate, (R)-ethyl-1-(1-phenylethyl)-1H-imidazole-5-carboxylate, reference compound]	24.6 ± 4.7 min/(log mg/kg)	–	–	–	–	–	–	800 ± 180
Cyclopropyl- methoxycarbonyl metomidate	6.9 ± 0.5 min/(log mg/kg)	0.69 ± 0.04	420 ± 11	0.57 (0.49–0.68) min	–	–	–	–
COC(=O)C[C@@H](C)OC(=O)c1cncn1[C@H](C)c1ccccc1 [β-(R)-methyl- methoxycarbonyl etomidate]	2.9 ± 0.8 min/(log mg/kg)	3.5 ± 0.6	500 ± 24	0.91 (0.76–1.1) min	–	–	–	–
COC(=O)[C@H](C)OC(=O)c1cncn1[C@H](C)c1ccccc1 [(S)-methyl- methoxycarbonyl metomidate]	1.9 ± 0.2 min/(log mg/kg)	3.5 ± 0.4	330 ± 16	0.14 (0.08–0.62) min	–	–	–	–
COC(=O)CCOC(=O)c1cncn1[C@H](c1ccccc1)C(C)C [(S)-isopropyl- methoxycarbonyl metomidate]	12.1 ± 1.1 min/(log mg/kg)	1.2 ± 0.19	2860 ± 67	15.5 (11.6–23.1) min	–	–	–	–
